The results in this text go back to patent publication US4578382A, “4-acylamino-1-azaadamantanes, and compositions for use thereof in medicine” (Etablissements Nativelle S.A., priority 1981, dated 1986).

The term ED50 denotes the dose that gives a 50% effect, or the effect in half of the subjects. Higher therefore signals a need for a large dose.

Read-outs that look alike come from different tables or passages of the source.

The test system of series [1] is ventricular arrhythmias with adrenalin. The experiment in a line: Test with adrenalin after experimental infarct. It is filed as in vivo, dog. Conditions: 14.3 mg/kg, control period 74% of ESV. From the text:
(§1) Narcisse et al, Ann. Pharma. Fr., 37, 325-330 (1979), in the rat by the aconitine intoxication test of S. Witchitz et al, Coeur Med. Int., X(2), 281-286, (1971) and in the dog by the Harris test described in Circulation, 1, 1318, (1950) and by the test with adrenalin after experimental infarct of I. J. Steffe et al, J. Pharmacol. Exp. Ther., 214, 50-57 (1980).
2 to 5 days after an experimental infarct, the effects of discontinuous injections (in intravenous bolus of […] of basic adrenalin) of adrenalin were observed on the electrocardioagram of the conscious dog.
During a first phase (control) of the experiment, three successive injections of adrenalin were given and, in the 2 minutes following each injection, the frequency of the ventricular extrasystoles was measured. In this manner, by increasing the dose of adrenalin as necessary, it was possible to determine the dose which caused the appearance of ventricular extrasystoles at a higher frequency than or equal to half the total number of ventricular systoles.
After injection of the derivative to be tested, the same dose of adrenalin was reinjected after 5 minutes, then 30 minutes, 60 minutes, 90 minutes, etc., and its effects were compared to those observed during the control period.
The results therein are expressed as a percentage of extrasystoles (on the total number of systoles) measured during the 2 minutes following the injection of adrenalin before and after the administration of the derivative to be tested.

A short description of series [2]: Lawson test (cardiac antifibrillatory power, chloroform). To be noted: in vivo, ip; mouse, intraperitoneal; read-out: Maximum Dose Tolerated.
Series [3] relates to anesthetized dog. Kind of series: Hemodynamic (cardiovascular) tolerance in the anesthetized dog. It is filed as in vivo. Conditions: i.v., cumulative doses 0.3 to 10 mg/kg; vs control period. How it is done: The hemodynamic tolerance of the derivatives of the invention was studied on dogs anesthesized with sodium pentobarbital. Endocavitary pressures were measured by means of catheters connected to Statham sensors while external recording of the electrocardiogram (E.C.G.) provided the measurement of cardiac frequency. Cardiac flow was measured by means of an electromagnetic sensor placed on the beginning of the aorta. The total peripheral resistances R were calculated from the value of the average aortic pressure (P) and the cardiac flow (Q) in accordance with the formula R=P/Q.
After measurement of the parameters during a control period, the derivatives were injected intravenously in cumulative doses (30 minute interval between doses). The variations of the parameters in relation to the control period were measured within 20 and 30 minutes after each injection and are expressed as a percentage of variation in relation to the control.
Table 2 summarizes the variations in hemodynamic parameters observed between the first and last injections.

For series [4], the system named is ventricular arrhythmias and death induced by the aconitine. Kind of series: Aconitine intoxication test in the anesthetized rat. Format: in vivo. Conditions: i.v., vs untreated control.
From the text: as §1
The anesthetized rat was intoxicated with an intravenous perfusion of aconitine while its electrocardiogram (ECG) was permanently recorded. During the perfusion at constant rate, the time necessary for the appearance of ventricular arrhythmias, successive extrasystoles (ESV), then stable ventricular tachycardium (TV) and the time within which the animal died were measured.
The animals were divided into a control group (untreated) and treated groups (different doses). The results are expressed as a percentage of prolonging the time of appearance of the arrhythmias and of death of the treated groups in reaction to the control group.
The results obtained are shown in Table 4 below and express the percentage of prolongation of the time of appearance of ventricular arrhythmias (ventricular extrasystoles and ventricular tachycardiums), and of the death, induced by the aconitine after an intravenous injection (I.V.) of several derivatives of the invention, in relation to a group of untreated control animals.

For series [5], the system named is anesthetized dog. The experiment in a line: Electrophysiological studies on the anesthetized dog. Conditions: i.v., doses 0.3 to 14.3 mg/kg; 2 evaluations. Format: in vivo. How it is done: This study was carried out on dogs anesthetized with pentobarbital, with a closed thorax, by means of bipolar catheter-electrodes introduced into the cardiac cavities by transcutaneous venous and arterial means. The surface electrocardiogram (standard derivation D2) is recorded permanently.
By means of a programmable JANSEN (R) stimulator, the following parameters may be measured:
spontaneous cardiac frequency (FC);
sinus recuperation time (SRTc) after auricular stimulation imposed at 160 b/mn for 1 mn;
intracardiac conduction times (auriculohisien at a constant frequency, His-Purkinje, intraventricular);
the effective and functional refractory periods measured at an imposed constant frequency, with the extrastimulus method.
During the electrophysiological study, the derivatives were injected intravenously for 2 minutes for each dose and at 30 minute intervals between each dose. The doses are expressed as a cumulative value and as a base term.
The measurement of the various parameters was carried out before the injection of the first dose (control period) and from 10 to 28 minutes after the injection of each dose of the substance. The results are expressed as a percentage of variation in relation to the control period.

Series [6] in a line: Acute toxicity in the mouse (LD 50, Litchfield and Wilcoxon). To be noted: in vivo. How it is done:
The acute toxicity of the derivatives of the invention were studied by intraperitoneal administration (I.P.) on the mouse (10 animals, 5 males and 5 females per dose) and calculation of the lethal dose 50 (LD 50) in accordance with the method of Litchfield and Wilcoxon (J. Pharmacol. 96, 99-113 (1949)).
In certain cases (derivatives of Examples 4, 6, 9), the LD 50 was also calculated after oral administration (P.O.) of the derivatives.

In series [7] the test system is anoxic ventricular fibrillation. The experiment in a line: Lawson test (cardiac antifibrillatory power, chloroform). Format: in vivo. Conditions: ip; mouse, intraperitoneal, 10 minutes before chloroform. Here is the method: The Lawson test is a test for the study of the cardiac antifibrillatory power of the derivatives. The mice (20 per group) received an intraperitoneal injection of the derivative 10 minutes before being placed in a chloroform-saturated atmosphere. Upon respiratory arrest, the thorax was opened (5 to 10 seconds) and whether or not the heart was in ventricular fibrillation was checked. The efficacy dose 50 (ED 50) of the derivative being studied is the dose which protects half the mice against anoxic ventricular fibrillation.

Another series has as its system ventricular arrhythmias. Kind of series: Harris test (ventricular arrhythmias after experimental infarct). Format: in vivo, dog.
From the text: as §1
The ligature of the anterior interventricular artery in the anesthetized dog causes the appearance of an experimental infarct of the myocardium followed by considerable ventricular arrhythmias.
The dogs were studied 24 to 48 hours after the intervention. The electrocardiogram (ECG) was then recorded permanently, the conscious dog being at rest in an isolated laboratory. After a period of 3 hours of ECG recording, allowing for the measurement of the cardiac frequency of the dog the frequency of ventricular extrasystoles (ESV)--pre-treatment control period--the derivative to be studied was injected intravenously for 1 minute. Continuous recording of the ECG enabled, in the hours following the injection, measurement of the frequency of the ESV/mn for successive periods from 30 to 60 min. The number of ESV per minute measured for 3 hours during the control period varied from 66 to 172/min with an average of 111/min. […] The length of this antiarrhythmic effect observed varied depending on the derivatives from 1 hour to more than 5 hours. For example, the percentage decrease of the ESV/min in the case of the derivative of Example 11 (cumulative dose 14 mg/kg) was 96% (0 to 1/2 hour), 50% (1/2 to 1 hour) and 68% (1 to 2 hour). The corresponding values for the derivative of Example 4 (3 mg/kg) were 44%, 55% and 45%, respectively.

For the molecule `CC1(NC(=O)CCc2ccccc2)C2CC3CC1CN(C2)C3(C)C` (stereo not drawn) [Example 4, N-(3-phenylpropionyl)-4-amino-4,8,8-trimethyl-1-azaadamantane], the “ESV Percentage at 5 min” value in series [1] (5 min) is reported as 36%. In series [1] (30 min), the “ESV Percentage at 30 min” value is 59%. Besides, the “ESV Percentage at 60 min” value in series [1] (60 min) stood at 60%. In series [2], the MTD was 200 mg/kg. Further, in the series with anesthetized dog [3], the “Cardiac Flow, percentage of variation” value was -7 to -23%; the “Cardiac Frequency, percentage of variation” value is -7%; the “Systolic Arterial Pressure, percentage of variation” value is given as -7 to -28%; the “Total Peripheral Resistances, percentage of variation” value is recorded as 0 to -13%. The “dp/dt/p Left Ventricular, percentage of variation” value in the series with anesthetized dog [3] was in the range of 0 to -40%. Further, in series [4] (5 mg/kg), the “Prolongation of time of appearance of ventricular extrasystoles (ESV)” value (“Prolongation of time of appearance … (ESV)” for short) is on record as “+37%”, the “Prolongation of time of appearance of ventricular tachycardium (TV)” value (“Prolongation of time of appearance … (TV)” for short) is reported as “+50%” and the “Prolongation of time to death” value was “+25%”. Also, in series [4] (10 mg/kg), the “Prolongation of time of appearance … (ESV)” value is “+60%”, the “Prolongation of time of appearance … (TV)” value is recorded as “+86%” and the “Prolongation of time to death” value is listed as “+39%”. In addition, in series [4] (20 mg/kg), the “Prolongation of time of appearance … (ESV)” value was “+103%”, the “Prolongation of time of appearance … (TV)” value is recorded as “+89%” and the “Prolongation of time to death” value is listed as “+65%”. In the series on anesthetized dog [5], the “F.C. (cardiac frequency), variation” value came out at 0%; the “HV (time of His-Purkinje conduction), variation” value is reported as 0 to +80%; the “PREA (effective auricular refractory period), variation” value is reported as “+10 to +35%”; the “PREV (effective ventricular refractory period), variation” value is on record as 0 to +10%. In the series on anesthetized dog [5], the “QRS (time of intraventricular conduction), variation” value is recorded as 0 to +15% and the “St-H (time of auriculohisien conduction), variation” value is reported as “+7 to +10%”. Further, the LD50 in series [6] (ip, intraperitoneal, read-out: LD 50 I.P.) came to 375 mg/kg. The LD50 in series [6] (oral, read-out: LD 50 P.O.) was 2400 mg/kg. Moreover, in series [7], the median effective dose (ED50) was found to be 72 mg/kg. For the same molecule, the “Percentage decrease of the ESV/min” value in the series on ventricular arrhythmias (3 mg/kg i.v., 0 to 1/2 hour) turned out to be 44%. Besides, the “Percentage decrease of the ESV/min” value with ventricular arrhythmias (3 mg/kg i.v., 1/2 to 1 hour) came out at 55%. The “Percentage decrease of the ESV/min” value with ventricular arrhythmias (3 mg/kg i.v., 1 to 2 hour) amounted to 45%.
`CC1(NC(=O)CCCc2ccccc2)C2CC3CC1CN(C2)C3(C)C` (stereo not drawn) [Example 11, N-(4-phenylbutyryl)-4-amino-4,8,8-trimethyl-1-azaadamantane]: the “Percentage decrease of the ESV/min” value with ventricular arrhythmias (cumulative dose 14 mg/kg i.v., 0 to 1/2 hour) turned out to be 96%; in the series with ventricular arrhythmias (cumulative dose 14 mg/kg i.v., 1/2 to 1 hour) it was 50%; with ventricular arrhythmias (cumulative dose 14 mg/kg i.v., 1 to 2 hour) it was 68%.
